Laboratory results as given in patent US9358247B2, “Methods and compositions for promoting activity of anti-cancer therapies” (Oncology Research International Limited, priority 2006, dated 2016).

Test system: HT29 human cells
Assay: In vivo tumour volume, HT29 cells subcutaneously introduced into mice, 5-fluorouracil and deltonin
Parameters: species or system Balb/c nude female mice
Source text: 5-Fluorouracil (5FU) is the principal chemotherapeutic drug used in treating colon cancer; it is most commonly co-administered with other chemotherapeutic agents. This study compared the co-administration of 5-fluoruracil and deltonin, with administration of mono-administration of both 5-fluorourcil and deltonin.
72 female Balb/c nude female mice were microchipped, weighed and randomised based on body weight into 8 groups with 9 mice per group. […]
HT29 human […] carcinoma cells were cultured in RPMI1640 cell culture medium, which was supplemented with 10% FBS and penicillin-streptomycin (50 IU/mL final concentration). The cells were harvested by trypsinisation, washed twice in HBSS and counted. The cells were then resuspended in HBSS and adjusted to a final volume containing 2×10^7 cells/mL. For inoculation, the needle was introduced through the skin into the subcutaneous space just below the right shoulder, where 100 μL of cells (2×10^6) were discharged.
When the tumour volumes had reached an average of greater than 200 mm^3, treatment was started (Day 0). Tumour volumes were measured 3-times weekly, and determined according to the formula: V(mm^3)=length×diameter^2×π/6
Treatment was continued for 17 days. The mean tumour volumes for each dosage regime are given in Table 24 and are presented graphically in FIG. 1: […]

`C[C@@H]1CC[C@@]2(OC1)O[C@H]1C[C@H]3[C@@H]4CC=C5C[C@@H](O[C@@H]6O[C@H](CO)[C@@H](O[C@@H]7O[C@H](CO)[C@@H](O)[C@H](O)[C@H]7O)[C@H](O)[C@H]6O[C@@H]6O[C@@H](C)[C@H](O)[C@@H](O)[C@H]6O)CC[C@]5(C)[C@H]4CC[C@]3(C)[C@H]1[C@@H]2C` [Deltonin, diosgenin Rha2, [Glc4], Glc] showed a Mean tumour volume (Deltonin 1.65 mg/kg daily, Day 0) of 236 mm^3, a Mean tumour volume (Deltonin 1.65 mg/kg daily, Day 2) of 260 mm^3 and a Mean tumour volume (Deltonin 1.65 mg/kg daily, Day 4) of 299 mm^3. It also gave a Mean tumour volume (Deltonin 1.65 mg/kg daily, Day 7) of 294 mm^3, a Mean tumour volume (Deltonin 1.65 mg/kg daily, Day 9) of 350 mm^3 and a Mean tumour volume (Deltonin 1.65 mg/kg daily, Day 11) of 462 mm^3. It also gave a Mean tumour volume (Deltonin 1.65 mg/kg daily, Day 14) of 594 mm^3, a Mean tumour volume (Deltonin 1.65 mg/kg daily, Day 16) of 644 mm^3 and a Mean tumour volume (Deltonin 1.65 mg/kg daily, Day 18) of 776 mm^3. The Mean tumour volume (Deltonin 3.3 mg/kg daily, Day 0) was 236 mm^3, the Mean tumour volume (Deltonin 3.3 mg/kg daily, Day 2) was 242 mm^3 and the Mean tumour volume (Deltonin 3.3 mg/kg daily, Day 4) was 271 mm^3. The Mean tumour volume (Deltonin 3.3 mg/kg daily, Day 7) was 331 mm^3, the Mean tumour volume (Deltonin 3.3 mg/kg daily, Day 9) was 413 mm^3 and the Mean tumour volume (Deltonin 3.3 mg/kg daily, Day 11) was 489 mm^3. For the same compound, the Mean tumour volume (Deltonin 3.3 mg/kg daily, Day 14) was 558 mm^3, the Mean tumour volume (Deltonin 3.3 mg/kg daily, Day 16) was 742 mm^3 and the Mean tumour volume (Deltonin 3.3 mg/kg daily, Day 18) was 842 mm^3. It also gave a Mean tumour volume (Deltonin 6.6 mg/kg daily, Day 0) of 235 mm^3, a Mean tumour volume (Deltonin 6.6 mg/kg daily, Day 2) of 233 mm^3 and a Mean tumour volume (Deltonin 6.6 mg/kg daily, Day 4) of 265 mm^3. The Mean tumour volume (Deltonin 6.6 mg/kg daily, Day 7) was 310 mm^3, the Mean tumour volume (Deltonin 6.6 mg/kg daily, Day 9) was 399 mm^3 and the Mean tumour volume (Deltonin 6.6 mg/kg daily, Day 11) was 490 mm^3. The Mean tumour volume (Deltonin 6.6 mg/kg daily, Day 14) was 588 mm^3, the Mean tumour volume (Deltonin 6.6 mg/kg daily, Day 16) was 671 mm^3 and the Mean tumour volume (Deltonin 6.6 mg/kg daily, Day 18) was 692 mm^3.
